Measured values published in patent publication US20070292876A1, “METHODS FOR IDENTIFICATION OF COMPOUNDS THAT MIMIC THE SENESCENCE-INDUCING ACTIVITY OF RETINOIC ACID RECEPTOR LIGANDS” (Ordway Research Institute, Inc., priority 2006, published 2007).
“Also recorded” adds a separate entry of the source. Each block holds one compound with its values, some of them ahead of it.

Columns and labels:
Format in all cases: cell-based, human
MCF-7 cells [1] = test: Effect on MCF-7 cell growth (cell number after 7 days exposure); conditions: LGD1550 100 nM, LG100815 10 μM, LGD1268 100 nM, LG101208 10 μM
Procedure: The bars represent cell number after 7 days of culture with the addition of DMSO (control), 100 nM RA, 100 nM RAR agonist LGD1550, 100 nM RXR agonist LGD1268, 10 μM RAR antagonist LG100815, and 10 μM RXR antagonist LG101208. Experiments were done in triplicate, and the results are expressed relative to the average of the control.
(§1) MCF-7 cells were plated at 5×10^5 per P100, and exposed on the next day to DMSO carrier, RA (100 nM), pan-RAR-specific ligands, LGD1550 (100 nM) and LG100815 (10 μM), pan-RXR specific agonist LGD1268, pan-RXR-specific antagonist LG101208, or drug-free DMSO carrier (control). The latter four compounds were provided by Ligand Pharmaceuticals, Inc. The effects of RAR ligands on the growth of MCF-7 cells were determined, as measured by the cell number after 7 days exposure to the compounds (FIG. 1) and on the fraction of cells expressing the senescence-associated β-galactosidase activity (SA-β-gal), a marker of senescence, after 7-day treatment with the compounds (FIG. 2).

MCF-7 cells [2] = test: Senescence-associated β-galactosidase (SA-β-gal) positive fraction of MCF-7 cells; conditions: 7-day treatment; same concentrations as for cell growth
Procedure: The bars represent percentages of SA-P-gal+cells after 8 days of treatment with the indicated compounds (in triplicate). The compounds were used at the same concentrations as in FIG. 1.
as §1

MCF-7 cells [3] = test: Affymetrix U133 Plus 2.0 microarray gene expression profiling: tumor suppressors induced by RAR ligands; conditions: 24, 48 or 72 hr treatment
Description: (§2) FIG. 3 depicts microarray analysis of changes in gene expression in MCF-7 cells treated with RAR ligands LGD1550 or LG100815, plotted using GeneSpring software. The X axis represents different time points of treatment with RAR ligands (0 point correspond to cells cultured for 3 days with DMSO carrier). […] The groups of genes shown in panels (a) and (b) represent gene ontology (GO) categories, with the exclusion of genes showing raw signal intensity <10 in MCF-7 cells. The groups of genes shown in panels (c) and (d) represent the oncogenes and tumor suppressors listed in Table 1 and Table 2, respectively.
(§3) For the analysis of gene expression, cells treated with the carrier or with RAR ligands LGD1550 or LG100815 were collected after 24, 48 or 72 hr treatment. Total cellular RNA was isolated using Qiagen's RNeasy kit. For gene expression profiling, RNA samples were provided to the Microarray Core Facility at the Genomics Institute of the NYSDOH Wadsworth Center, which carried out biotinylated target preparation (using 2 μg RNA per assay) and hybridization with Affymetrix U133 Plus 2.0 microarrays. Data analysis was carried out using GeneSpring software (Agilent). Gene function analysis was carried out using Pathway Assist (Ariadne Genomics) and PubMed.
As previously described (Dokmanovic et al., 2002), retinoid treatment of MCF-7 cells induces genes that encode growth-inhibitory proteins, both intracellular (EPLIN and UBD) and secreted (IGFBP3 and TGFBI). Through the survey of the present microarray data, additional retinoid-inducible growth-inhibitory genes, induced both by LGD1550 and LG100815, have been identified. These genes, listed in Table 2, provide advantageous reporters for identifying compounds that mimic the senescence-inducing effects of retinoids. The products of these genes include both secreted factors and cell-associated proteins.

MCF-7 cells [4] = test: Affymetrix U133 Plus 2.0 microarray gene expression profiling: genes (oncogenes) inhibited by RAR ligands; conditions: 24, 48 or 72 hr treatment
Description: as §2, §3
Gene Ontology groupings of genes with related biological functions (as provided in the GeneSpring software package) were surveyed for concerted response to RAR ligands. […] Strong downregulation of such genes has been associated with cell cycle arrest induced by chemotherapeutic drugs (Chang et al., 2002). In contrast, inhibition of these genes by RAR ligands was moderate (on average about 2-fold), with almost no genes showing 5-fold or stronger inhibition. On the other hand, we noticed that many of the genes that show the greatest fold inhibition by RAR ligands are known or putative oncogenes. Genes are defined herein as putative oncogenes or tumor suppressors if such genes have been reported in the literature to play a functional role in tumor cell growth, survival, tumorigenesis or metastasis, as determined by targeted inhibition, gene overexpression or protein addition studies.

MDA-MB-231 cells = test: Coculture of GFP-expressing MDA-MB-231 cells with RA-treated MCF-7 cells, MDA-MB-231 cell number by FACS
Procedure: Each bar represents MDA-MB-231 cell number after five days of culture relative to cell number in the absence of MCF-7 or RA. Mean and standard deviation were calculated from three independent experiments. • (b) MDA-MB-231 cells (GFP-expressing) were plated as 1:1 mixtures with MCF-7 cells that were either untreated or treated for eight days with 100 nM, and grown in the presence of DMSO carrier or 100 nM RA. Each bar represents MDA-MB-231 cell relative to MDA-MB-231 cell number in coculture with untreated MCF-7 without RA. Mean and standard deviation were calculated from three independent experiments.
Since retinoid-treated MCF-7 cells upregulate genes for secreted factors with different activities, a functional test was carried out to determine whether retinoid-treated MCF-7 cells express primarily pro-mitogenic or anti-mitogenic activity. In this assay, MCF-7 cells were mixed (1:1) with MDA-MB-231 breast carcinoma cells (insensitive to retinoids), which were transduced with Green Fluorescent Protein (GFP), providing the ability to distinguish and quantitate these cells by FACS analysis. The co-cultures were treated for five days with 100 nM RA. […] In contrast, retinoid treatment in coculture with MCF-7 decreased the number of MDA-MB-231 cells by about 25% (FIG. 4a). In another type of experiment, shown in FIG. 4b, MCF-7 cells were pre-treated for 8 days with RA, to allow for complete growth arrest and development of the senescent phenotype. The treated MCF-7 cells were collected by trypsinization and cocultured for three days with MDA-MB-231, in the presence or in the absence of RA. Coculture with RA-pretreated MCF-7 cells was sufficient to inhibit MDA-MB-231 cell growth by about 30%, as compared to coculture with untreated MCF-7 cells (FIG. 4B, left bar).

SMILES: Cc1cc2c(cc1C1(c3ccc(C(=O)O)cn3)CC1)C(C)(C)CCC2(C)C [LGD1268]
MCF-7 cell growth (cell number) (MCF-7 cells [1]): did not inhibit cell growth; also recorded: modest but reproducible increase in cell growth
fraction of cells expressing SA-β-gal (senescent phenotype) (MCF-7 cells [2]): did not induce the senescent phenotype

Max fold induction of NBL1 (MCF-7 cells [3]; probe 37005_at): 4.0 fold
Max fold induction of GSN (MCF-7 cells [3]; probe 200696_s_at): 1.7 fold
Max fold induction of BTG1 (MCF-7 cells [3]; probe 200921_s_at): 2.5 fold
Max fold induction of PRSS11 (MCF-7 cells [3]; probe 201185_at, secreted): 1.9 fold
Max fold induction of BTG2 (MCF-7 cells [3]; probe 201236_s_at): 8.3 fold
Max fold induction of TGFBI (MCF-7 cells [3]; probe 201506_at, secreted): 53.0 fold
Max fold induction of MARCKS (MCF-7 cells [3]; probe 201669_s_at): 9.3 fold
Max fold induction of PRSS8 (MCF-7 cells [3]; probe 202525_at, secreted): 2.4 fold
Max fold induction of IRF1 (MCF-7 cells [3]; probe 202531_at): 5.3 fold
Max fold induction of FBLN5 (MCF-7 cells [3]; probe 203088_at, secreted): 10.1 fold
Max fold induction of IGFBP6 (MCF-7 cells [3]; probe 203851_at, secreted): 2.6 fold
Max fold induction of GADD45G (MCF-7 cells [3]; probe 204121_at): 3.8 fold
Max fold induction of UBD (MCF-7 cells [3]; probe 205890_s_at): 35.9 fold
Max fold induction of BATF (MCF-7 cells [3]; probe 205965_at): 2.7 fold
Max fold induction of CEACAM1 (MCF-7 cells [3]; probe 206576_s_at): 16.2 fold
Max fold induction of PPARG (MCF-7 cells [3]; probe 208510_s_at): 15.9 fold
Max fold induction of KLF6 (MCF-7 cells [3]; probe 208961_s_at): 2.2 fold
Max fold induction of DDIT3 (MCF-7 cells [3]; probe 209383_at): 2.5 fold
Max fold induction of NKX3-1 (MCF-7 cells [3]; probe 209706_at): 7.5 fold
Max fold induction of IGFBP3 (MCF-7 cells [3]; probe 210095_s_at, secreted): 32.2 fold
Max fold induction of SULF1 (MCF-7 cells [3]; probe 212354_at, secreted): 2.9 fold
Max fold induction of PDCD4 (MCF-7 cells [3]; probe 212593_s_at): 1.7 fold
Max fold induction of EI24 (MCF-7 cells [3]; probe 216396_s_at): 2.2 fold
Max fold induction of EPLIN (MCF-7 cells [3]; probe 217892_s_at): 18.8 fold
Max fold induction of PHLDA1 (MCF-7 cells [3]; probe 217996_at): 3.7 fold
Max fold induction of GDF15 (MCF-7 cells [3]; probe 221577_x_at, secreted): 7.2 fold
Max fold induction of FOXO3A (MCF-7 cells [3]; probe 224891_at): 2.3 fold
Max fold induction of HIPK2 (MCF-7 cells [3]; probe 225368_at): 3.7 fold
Max fold induction of TGFB2 (MCF-7 cells [3]; probe 228121_at, secreted): 2.0 fold
Max fold induction of CDKN2B (MCF-7 cells [3]; probe 236313_at): 3.2 fold
Max fold induction of VHL (MCF-7 cells [3]; probe 1559227_s_at): 2.0 fold
SMILES: CC(/C=C/C=C(\C)c1cc(C(C)(C)C)cc(C(C)(C)C)c1)=C\C(=O)O [LGD1550]
MCF-7 cell growth (cell number) (MCF-7 cells [1]): inhibited the cell growth
fraction of cells expressing SA-β-gal (senescent phenotype) (MCF-7 cells [2]): induced SA-β-gal to an extent similar to that of RA
Max fold inhibition of G6PD (MCF-7 cells [4]; probe 202275_at): 2.2 fold
Max fold inhibition of CCNA2 (MCF-7 cells [4]; probe 203418_at): 3.3 fold
Max fold inhibition of PTTG1 (MCF-7 cells [4]; probe 203554_x_at): 2.7 fold
Max fold inhibition of PBX3 (MCF-7 cells [4]; probe 204082_at): 3.4 fold
Max fold inhibition of FGFR3 (MCF-7 cells [4]; probe 204379_s_at): 5.0 fold
Max fold inhibition of TFF3 (MCF-7 cells [4]; probe 204623_at, secreted): 4.0 fold
Max fold inhibition of IRS1 (MCF-7 cells [4]; probe 204686_at): 2.6 fold
Max fold inhibition of MYB (MCF-7 cells [4]; probe 204798_at): 9.9 fold
Max fold inhibition of C4.4A (MCF-7 cells [4]; probe 204952_at): 8.1 fold
Max fold inhibition of ENTPD5 (MCF-7 cells [4]; probe 205757_at): 3.4 fold
Max fold inhibition of GREB1 (MCF-7 cells [4]; probe 205862_at): 4.8 fold
Max fold inhibition of HMMR (MCF-7 cells [4]; probe 207165_at): 2.9 fold
Max fold inhibition of CCND1 (MCF-7 cells [4]; probe 208711_s_at): 2.1 fold
Max fold inhibition of BMP7 (MCF-7 cells [4]; probe 209591_s_at, secreted): 1.8 fold
Max fold inhibition of CXCL12 (MCF-7 cells [4]; probe 209687_at, secreted): 5.7 fold
Max fold inhibition of MSX2 (MCF-7 cells [4]; probe 210319_x_at): 4.0 fold
Max fold inhibition of RET (MCF-7 cells [4]; probe 211421_s_at): 8.5 fold
Max fold inhibition of PIK3R1 (MCF-7 cells [4]; probe 212240_s_at): 2.0 fold
Max fold inhibition of MYBL1 (MCF-7 cells [4]; probe 213906_at): 2.6 fold
Max fold inhibition of MAFB (MCF-7 cells [4]; probe 218559_s_at): 7.5 fold
Max fold inhibition of VAV3 (MCF-7 cells [4]; probe 218807_at): 14.5 fold
Max fold inhibition of PDLIM2 (MCF-7 cells [4]; probe 219165_at): 4.0 fold
Max fold inhibition of ECT2 (MCF-7 cells [4]; probe 219787_s_at): 2.8 fold
Max fold inhibition of SPDEF (MCF-7 cells [4]; probe 220192_x_at): 14.2 fold
Max fold inhibition of AMIGO2 (MCF-7 cells [4]; probe 222108_at): 11.7 fold
Max fold inhibition of MALAT1 (MCF-7 cells [4]; probe 224559_at): 2.5 fold

SMILES: CC1=C(/C=C/C(C)=C/C=C/C(C)=C/C(=O)O)C(C)(C)CCC1 [RA, all-trans retinoic acid]
growth of MDA-MB-231 cells (MDA-MB-231 cells; 100 nM RA alone, without MCF-7 cells, five days): no effect
decrease of the number of MDA-MB-231 cells (MDA-MB-231 cells; 100 nM RA in 1:1 coculture with MCF-7, five days): about 25%
inhibition of MDA-MB-231 cell growth (MDA-MB-231 cells; coculture for three days with MCF-7 pre-treated 8 days with RA, vs coculture with untreated MCF-7): about 30%
effect of addition of RA to the coculture on MDA-MB-231 growth inhibition (MDA-MB-231 cells; coculture with RA-pretreated MCF-7, 100 nM RA present, three days): no significant effect
